Test results as given in the NIST ThermoML archive (doi:10.1016/j.jct.2005.10.009).

Experiment: molar heat capacity at constant pressure; xn = mol fraction of the nth substance listed
Conditions: 101 kPa, Liquid, Small sample (50 mg) DSC

CCCCCCCCCCO [decan-1-ol] + CCCCCCC
molar heat capacity at constant pressure [J/K/mol]
Conditions	x1 = 0.0506	x1 = 0.0979	x1 = 0.1541	x1 = 0.2543	x1 = 0.3757	x1 = 0.5378	x1 = 0.7551	x1 = 0.9008	x1 = 1
290.91 K	235.98	243.78	252.15	266.07	282.7	304.21	333.09	351.55	364.49
291.15 K	236.08	243.9	252.2	266.16	282.63	304.17	333.35	351.9	364.8
292.15 K	236.53	244.42	252.79	266.99	283.4	305.3	334.38	353.11	366.05
293.15 K	237.09	245.13	253.5	267.69	284.09	306.17	335.4	354.31	367.19
294.15 K	237.67	245.8	254.28	268.44	284.97	307.04	336.39	355.23	368.25
295.15 K	238.27	246.44	255.06	269.19	285.92	308.08	337.47	356.26	369.35
296.15 K	238.89	247.13	255.82	269.75	286.81	308.89	338.44	357.26	370.35
297.15 K	239.51	247.87	256.61	270.59	287.73	309.97	339.61	358.4	371.6
298.15 K	239.86	248.38	257.16	271.36	288.4	310.74	340.46	359.54	372.77
299.15 K	240.3	248.86	257.8	272.19	289.09	311.53	341.42	360.58	373.71
300.15 K	240.83	249.51	258.45	272.99	289.92	312.43	342.44	361.76	374.91
301.15 K	241.28	250.01	259.03	273.68	290.74	313.24	343.35	362.66	375.89
302.15 K	241.86	250.66	259.8	274.46	291.61	314.17	344.4	363.81	377.05
303.15 K	242.35	251.17	260.34	275.23	292.47	315.15	345.4	364.87	378.2
304.15 K	242.86	251.87	261.18	276.03	293.43	316.13	346.52	366.04	379.47
305.15 K	243.39	252.56	261.84	276.84	294.24	317.05	347.59	367.12	380.58
306.15 K	243.87	253.07	262.53	277.6	295.15	318	348.57	368.24	381.75
307.15 K	244.14	253.41	262.92	278.04	295.57	318.55	349.26	368.97	382.43
308.15 K	245.18	254.65	264.24	279.52	297.18	320.29	351.13	370.98	384.6
309.15 K	245.41	255.04	264.68	280.05	297.76	320.96	351.89	371.76	385.42
310.15 K	245.95	255.58	265.32	280.82	298.67	321.92	352.97	372.9	386.61
311.15 K	246.43	256.31	266.13	281.69	299.62	323.01	354.17	374.19	387.89
312.15 K	246.88	256.87	266.75	282.41	300.41	323.89	355.15	375.27	389.03
313.15 K	247.31	257.46	267.42	283.25	301.36	324.89	356.22	376.4	390.28
314.15 K	247.77	258.06	268.13	284.06	302.25	325.9	357.35	377.6	391.58
315.15 K	248.34	258.68	268.86	284.88	303.16	326.94	358.54	378.81	392.8
316.15 K	248.75	259.2	269.56	285.67	304.03	327.84	359.56	379.98	394.11
317.15 K	249.2	259.91	270.2	286.49	304.91	328.86	360.67	381.22	395.3
318.15 K	249.65	260.46	270.95	287.25	305.87	329.91	361.79	382.38	396.66
318.39 K	249.73	260.52	271.04	287.43	306.02	330.09	362.01	382.62	396.93
